Results reported in patent publication US12723063B2, “GIPR-agonist compounds” (Eli Lilly and Company, priority 2019, dated 2026).
*1 amine or outer side, *2 acyl side, *3 side chain or, on linkers, in order; H or OH if unused. Where a SMILES comes first, the peptide text is derived from it. Side-chain parts run from the residue outwards. [ ]: non-standard residue; d: D form. The star is where a group is joined. C20 diacid = O=C(O)CCCCCCCCCCCCCCCCCCC(=O)*; C18 diacid = O=C(O)CCCCCCCCCCCCCCCCC(=O)*; αMePhe(2-F) = C[C@](N)(Cc1ccccc1F)C(=O)O; γGlu = O=C(O)[C@H](CCC(=O)[*:2])N[*:1]; 4Pal = N[C@@H](Cc1ccncc1)C(=O)O; αMeL = CC(C)C[C@](C)(N)C(=O)O; Orn = NCCC[C@H](N)C(=O)O; AEEA = NCCOCCOCC(=O)O; Aib = CC(C)(N)C(=O)O

Key:
Experiment in all cases: cAMP functional assay (HTRF) in HEK293 cells in presence of 0.1% casein
Assay type in all cases: cell-based
[1] = biological target: T1, human GLP-1 receptor (GLP-1R) (Homo sapiens, UniProt P43220); settings: HEK293 cells expressing human GLP-1R, geometric mean, read-out: hGLP1R cAMP Rel EC50 nM (SEM, n)
T1 construct: expressed in transfected cells; host or cells: HEK293
T1 sequence (P43220 24-463): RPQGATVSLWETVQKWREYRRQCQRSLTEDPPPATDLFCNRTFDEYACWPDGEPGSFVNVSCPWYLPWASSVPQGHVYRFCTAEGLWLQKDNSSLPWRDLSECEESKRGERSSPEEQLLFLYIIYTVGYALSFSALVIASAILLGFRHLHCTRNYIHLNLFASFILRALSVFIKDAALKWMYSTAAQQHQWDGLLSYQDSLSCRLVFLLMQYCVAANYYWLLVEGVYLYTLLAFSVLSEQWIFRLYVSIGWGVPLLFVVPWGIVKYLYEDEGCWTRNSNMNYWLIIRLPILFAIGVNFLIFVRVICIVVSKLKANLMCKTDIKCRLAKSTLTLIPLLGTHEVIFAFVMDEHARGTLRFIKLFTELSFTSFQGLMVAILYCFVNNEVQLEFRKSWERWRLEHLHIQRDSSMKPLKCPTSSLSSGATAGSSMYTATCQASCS
Method: (§1) Each receptor over-expressing cell line (20 μl) is treated with the test peptide in DMEM (Gibco Cat #31053) supplemented with 0.1% Casein (Sigma Cat #C4765), 250 μM IBMX, 1× GlutaMAX™ (Gibco Cat #35050), and 20 mM HEPES (HyClone Cat #SH30237.01) in a 20 μl assay volume. After incubating for 60 minutes at room temperature, the resulting increase in intracellular CAMP is quantitatively determined using the CisBio CAMP Dynamic 2 HTRF Assay Kit (62AM4PEJ). The Lysis buffer containing cAMP-d2 conjugate (20 μl) and the antibody anti-cAMP-Eu3+-Cryptate (20 μl) are then added to determine the cAMP level. After incubating 60 minutes at room temperature, HTRF signal is detected with an Envision 2104 plate reader (PerkinElmer). Fluorescent emission at 620 nm and at 665 nm is measured and the ratio between 620 nm and at 665 nm is calculated and then are converted to nM cAMP per well using a cAMP standard curve. Dose response curves of compounds are plotted as the percentage of stimulation normalized to minimum (buffer only) and maximum (maximum concentration of each control ligand) values and analyzed using a four parameter non-linear regression fit with a variable slope (Genedata Screener 13). EC50 is the concentration of compound causing half-maximal simulation in a dose response curve. A relative EC50 value is derived by non-linear regression analysis using the percent maximal response vs, the concentration of peptide added, fitted to a four-parameter logistic equation.
(§2) Intracellular cAMP levels are determined by extrapolation using a standard curve. Dose response curves of compounds are plotted as the percentage of stimulation normalized to minimum (buffer only) and maximum (maximum concentration of each control ligand) values and analyzed using a four-parameter non-linear regression fit with a variable slope (Genedata Screener 13). EC50 is the concentration of compound causing half-maximal simulation in a dose response curve. Each relative EC50 value for the geometric mean calculation is determined from a curve fitting.
(§3) Concentration response curves of compounds are plotted as the percentage of stimulation normalized to minimum (buffer only) and maximum (maximum concentration of each control ligand) values and analyzed using a four-parameter non-linear regression fit with a variable slope (Genedata Screener 13). EC50 is the concentration of compound causing half-maximal simulation in a dose response curve. […] The standard error of the mean is reported:
(§4) [formula] • The log transform accounts for the EC50 values falling on a multiplicative, rather than an arithmetic scale.
(§5) For illustration, as shown by Example 1, the peptide is tested in 8 runs of the hGIPR CAMP assay. […] Accordingly, each Example will use the geometric mean of those values to normalize the Example assay runs.

[2] = biological target: T2, human glucagon receptor (GcgR) (Homo sapiens, UniProt P47871); settings: HEK293 cells expressing human GcgR, geometric mean, read-out: hGcgR cAMP Rel EC50 nM (SEM, n)
T2 construct: expressed in transfected cells; host or cells: HEK293
T2 sequence (P47871 26-477): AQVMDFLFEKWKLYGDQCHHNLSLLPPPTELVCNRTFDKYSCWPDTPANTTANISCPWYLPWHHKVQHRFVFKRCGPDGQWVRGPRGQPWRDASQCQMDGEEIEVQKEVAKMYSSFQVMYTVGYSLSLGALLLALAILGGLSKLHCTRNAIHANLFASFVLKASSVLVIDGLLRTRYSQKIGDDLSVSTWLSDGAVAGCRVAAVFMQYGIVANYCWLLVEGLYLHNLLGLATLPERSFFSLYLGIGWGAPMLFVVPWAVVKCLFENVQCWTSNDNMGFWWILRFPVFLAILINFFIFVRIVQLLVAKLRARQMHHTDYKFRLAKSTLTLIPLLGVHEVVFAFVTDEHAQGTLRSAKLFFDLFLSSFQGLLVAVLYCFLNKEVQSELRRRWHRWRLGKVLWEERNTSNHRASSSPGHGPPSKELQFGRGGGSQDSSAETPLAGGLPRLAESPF
Method: as §1, §2, §3, §4, §5

[3] = biological target: T3, human glucose-dependent insulinotropic peptide receptor (GIPR) (Homo sapiens, UniProt P48546); settings: HEK293 cells expressing human GIPR, geometric mean, read-out: hGIPR cAMP Rel EC50 nM (SEM, n)
T3 construct: expressed in transfected cells; host or cells: HEK293
T3 sequence (P48546 22-466): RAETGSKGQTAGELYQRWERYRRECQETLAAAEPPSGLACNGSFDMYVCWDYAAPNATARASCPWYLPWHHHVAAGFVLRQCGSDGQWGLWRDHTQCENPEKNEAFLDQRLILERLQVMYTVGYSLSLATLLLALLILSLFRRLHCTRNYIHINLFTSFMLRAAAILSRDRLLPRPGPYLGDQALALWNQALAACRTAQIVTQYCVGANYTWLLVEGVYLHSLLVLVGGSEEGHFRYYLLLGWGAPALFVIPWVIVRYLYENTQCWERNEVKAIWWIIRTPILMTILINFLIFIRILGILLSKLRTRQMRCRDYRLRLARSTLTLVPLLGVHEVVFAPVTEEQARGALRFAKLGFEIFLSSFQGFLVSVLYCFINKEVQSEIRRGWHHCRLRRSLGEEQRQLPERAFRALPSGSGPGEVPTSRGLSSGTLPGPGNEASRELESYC
Method: as §1, §2, §3, §4, §5

Structure (SMILES) | EC50 [1] | EC50 [2] | EC50 [3]
CC[C@H](C)[C@H](NC(=O)[C@H](CCCCN)NC(=O)[C@H](CC(=O)O)NC(=O)[C@H](CC(C)C)NC(=O)[C@](C)(CC(C)C)NC(=O)[C@@H](NC(=O)[C@H](CO)NC(=O)[C@H](Cc1ccc(O)cc1)NC(=O)[C@H](CC(=O)O)NC(=O)[C@H](CO)NC(=O)[C@@H](NC(=O)[C@H](Cc1ccccc1)NC(=O)[C@@H](NC(=O)CNC(=O)[C@H](CCC(=O)O)NC(=O)C(C)(C)NC(=O)[C@@H](N)Cc1ccc(O)cc1)[C@@H](C)O)[C@@H](C)CC)[C@@H](C)CC)C(=O)N[C@@H](Cc1c[nH]cn1)C(=O)N[C@@H](CCC(N)=O)C(=O)NC(C)(C)C(=O)N[C@@H](CC(=O)O)C(=O)N[C@@H](Cc1ccccc1)C(=O)N[C@H](C(=O)N[C@@H](CCC(=O)O)C(=O)N[C@@H](Cc1ccncc1)C(=O)N[C@@H](CCCCNC(=O)COCCOCCNC(=O)COCCOCCNC(=O)CC[C@H](NC(=O)CCCCCCCCCCCCCCCCC(=O)O)C(=O)O)C(=O)N[C@@H](CC(C)C)C(=O)N[C@@H](CCC(=O)O)C(=O)NCC(=O)NCC(=O)N1CCC[C@H]1C(=O)N[C@@H](CO)C(=O)N[C@@H](CO)C(=O)NCC(=O)N[C@@H](C)C(=O)N1CCC[C@H]1C(=O)N1CCC[C@H]1C(=O)N1CCC[C@H]1C(=O)N[C@@H](CO)C(N)=O)C(C)C [Example 110] (H-Y[Aib]EGTFISDYSI[αMeL]LDKIHQ[Aib]DFVE[4Pal]K([AEEA-AEEA-γGlu-C18 diacid])LEGGPSSGAPPPS-NH2) | > 5000 nM | > 5000 nM | 0.0071 nM
CC[C@H](C)[C@H](NC(=O)[C@H](CO)NC(=O)[C@H](Cc1ccc(O)cc1)NC(=O)[C@H](CC(=O)O)NC(=O)[C@H](CO)NC(=O)[C@@H](NC(=O)[C@](C)(Cc1ccccc1F)NC(=O)[C@@H](NC(=O)CNC(=O)[C@H](CCC(=O)O)NC(=O)C(C)(C)NC(=O)[C@@H](N)Cc1ccc(O)cc1)[C@@H](C)O)[C@@H](C)CC)C(=O)N[C@@H](CC(C)C)C(=O)N[C@@H](CC(C)C)C(=O)N[C@@H](CC(=O)O)C(=O)N[C@@H](CCCCN)C(=O)N[C@H](C(=O)N[C@@H](Cc1c[nH]cn1)C(=O)N[C@@H](CCC(N)=O)C(=O)NC(C)(C)C(=O)N[C@@H](CC(=O)O)C(=O)N[C@@H](Cc1ccccc1)C(=O)N[C@H](C(=O)N[C@@H](CCC(=O)O)C(=O)N[C@@H](Cc1ccncc1)C(=O)N[C@@H](CCCCNC(=O)COCCOCCNC(=O)COCCOCCNC(=O)CC[C@H](NC(=O)CCCCCCCCCCCCCCCCCCC(=O)O)C(=O)O)C(=O)N[C@@H](CC(C)C)C(=O)N[C@@H](CCC(=O)O)C(=O)N[C@@H](C)C(=O)NCC(=O)N1CCC[C@H]1C(=O)N[C@@H](CO)C(=O)N[C@@H](CO)C(=O)NCC(=O)N[C@@H](C)C(=O)N1CCC[C@H]1C(=O)N1CCC[C@H]1C(=O)N1CCC[C@H]1C(=O)N[C@@H](CO)C(N)=O)C(C)C)[C@@H](C)CC [Example 120] (H-Y[Aib]EGT[αMePhe(2-F)]ISDYSILLDKIHQ[Aib]DFVE[4Pal]K([AEEA-AEEA-γGlu-C20 diacid])LEAGPSSGAPPPS-NH2) | > 5000 nM | > 5000 nM | 0.0228 nM
CC[C@H](C)[C@H](NC(=O)[C@H](CCCN)NC(=O)[C@H](CC(=O)O)NC(=O)[C@H](CC(C)C)NC(=O)[C@](C)(CC(C)C)NC(=O)[C@@H](NC(=O)[C@H](CO)NC(=O)[C@H](Cc1ccc(O)cc1)NC(=O)[C@H](CC(=O)O)NC(=O)[C@H](CO)NC(=O)[C@@H](NC(=O)[C@H](Cc1ccccc1)NC(=O)[C@@H](NC(=O)CNC(=O)[C@H](CCC(=O)O)NC(=O)C(C)(C)NC(=O)[C@@H](N)Cc1ccc(O)cc1)[C@@H](C)O)[C@@H](C)CC)[C@@H](C)CC)C(=O)N[C@@H](Cc1c[nH]cn1)C(=O)N[C@@H](CCC(N)=O)C(=O)NC(C)(C)C(=O)N[C@@H](CCC(=O)O)C(=O)N[C@@H](Cc1ccccc1)C(=O)N[C@H](C(=O)N[C@@H](CCC(=O)O)C(=O)N[C@@H](Cc1ccc(O)cc1)C(=O)N[C@@H](CCCCNC(=O)COCCOCCNC(=O)COCCOCCNC(=O)CC[C@H](NC(=O)CCCCCCCCCCCCCCCCCCC(=O)O)C(=O)O)C(=O)N[C@@H](CC(C)C)C(=O)N[C@@H](CCC(=O)O)C(=O)NCC(=O)NCC(=O)N1CCC[C@H]1C(=O)N[C@@H](CO)C(=O)N[C@@H](CO)C(=O)NCC(=O)N[C@@H](C)C(=O)N1CCC[C@H]1C(=O)N1CCC[C@H]1C(=O)N1CCC[C@H]1C(=O)N[C@@H](CO)C(N)=O)C(C)C [Example 107] (H-Y[Aib]EGTFISDYSI[αMeL]LD[Orn]IHQ[Aib]EFVEYK([AEEA-AEEA-γGlu-C20 diacid])LEGGPSSGAPPPS-NH2) | > 5000 nM | > 5000 nM | 0.0199 nM
CC[C@H](C)[C@H](NC(=O)[C@H](CCCN)NC(=O)[C@H](CC(=O)O)NC(=O)[C@H](CC(C)C)NC(=O)[C@](C)(CC(C)C)NC(=O)[C@@H](NC(=O)[C@H](CO)NC(=O)[C@H](Cc1ccc(O)cc1)NC(=O)[C@H](CC(=O)O)NC(=O)[C@H](CO)NC(=O)[C@@H](NC(=O)[C@H](Cc1ccccc1)NC(=O)[C@@H](NC(=O)CNC(=O)[C@H](CCC(=O)O)NC(=O)C(C)(C)NC(=O)[C@@H](N)Cc1ccc(O)cc1)[C@@H](C)O)[C@@H](C)CC)[C@@H](C)CC)C(=O)N[C@@H](Cc1c[nH]cn1)C(=O)N[C@@H](CCC(N)=O)C(=O)NC(C)(C)C(=O)N[C@@H](CC(=O)O)C(=O)N[C@@H](Cc1ccccc1)C(=O)N[C@H](C(=O)N[C@@H](CCC(=O)O)C(=O)N[C@@H](Cc1ccncc1)C(=O)N[C@@H](CCCCNC(=O)COCCOCCNC(=O)COCCOCCNC(=O)CC[C@H](NC(=O)CCCCCCCCCCCCCCCCC(=O)O)C(=O)O)C(=O)N[C@@H](CC(C)C)C(=O)N[C@@H](CCC(=O)O)C(=O)NCC(=O)NCC(=O)N1CCC[C@H]1C(=O)N[C@@H](CO)C(=O)N[C@@H](CO)C(=O)NCC(=O)N[C@@H](C)C(=O)N1CCC[C@H]1C(=O)N1CCC[C@H]1C(=O)N1CCC[C@H]1C(=O)N[C@@H](CO)C(N)=O)C(C)C [Example 111] (H-Y[Aib]EGTFISDYSI[αMeL]LD[Orn]IHQ[Aib]DFVE[4Pal]K([AEEA-AEEA-γGlu-C18 diacid])LEGGPSSGAPPPS-NH2) | > 5000 nM | > 5000 nM | 0.0065 nM
CC[C@H](C)[C@H](NC(=O)[C@H](CCCN)NC(=O)[C@H](CC(=O)O)NC(=O)[C@H](CC(C)C)NC(=O)[C@](C)(CC(C)C)NC(=O)[C@@H](NC(=O)[C@H](CO)NC(=O)[C@H](Cc1ccc(O)cc1)NC(=O)[C@H](CC(=O)O)NC(=O)[C@H](CO)NC(=O)[C@@H](NC(=O)[C@H](Cc1ccccc1)NC(=O)[C@@H](NC(=O)CNC(=O)[C@H](CCC(=O)O)NC(=O)C(C)(C)NC(=O)[C@@H](N)Cc1ccc(O)cc1)[C@@H](C)O)[C@@H](C)CC)[C@@H](C)CC)C(=O)N[C@@H](Cc1c[nH]cn1)C(=O)N[C@@H](CCC(N)=O)C(=O)NC(C)(C)C(=O)N[C@@H](CCC(=O)O)C(=O)N[C@@H](Cc1ccccc1)C(=O)N[C@H](C(=O)N[C@@H](CCC(=O)O)C(=O)N[C@@H](Cc1ccncc1)C(=O)N[C@@H](CCCCNC(=O)COCCOCCNC(=O)COCCOCCNC(=O)CC[C@H](NC(=O)CCCCCCCCCCCCCCCCCCC(=O)O)C(=O)O)C(=O)N[C@@H](CC(C)C)C(=O)N[C@@H](CCC(=O)O)C(=O)N[C@@H](C)C(=O)NCC(=O)N1CCC[C@H]1C(=O)N[C@@H](CO)C(=O)N[C@@H](CO)C(=O)NCC(=O)N[C@@H](C)C(=O)N1CCC[C@H]1C(=O)N1CCC[C@H]1C(=O)N1CCC[C@H]1C(=O)N[C@@H](CO)C(N)=O)C(C)C [Example 122] (H-Y[Aib]EGTFISDYSI[αMeL]LD[Orn]IHQ[Aib]EFVE[4Pal]K([AEEA-AEEA-γGlu-C20 diacid])LEAGPSSGAPPPS-NH2) | > 5000 nM | > 5000 nM | 0.01 nM
